Patent US11103505B2, “Formulations of a compound modulating kinases” (Plexxikon Inc., priority 2017, dated 2021)
“Also recorded” adds a separate entry of the source. Where two headings read alike, the source gives them in different places. Values belong to the molecule of their own block, whether it stands above or below them.

Key:
[1] = target: T1, CYP3A4 (Homo sapiens, UniProt P08684); assay: Addition of CYP inhibitors: metabolism of Compound I; type: in vivo; details: observed in Phase I clinical trials
T1 construct: from tissue; host or cells: human subjects in vivo (endogenous enzyme)
T1 sequence (P08684 whole entry): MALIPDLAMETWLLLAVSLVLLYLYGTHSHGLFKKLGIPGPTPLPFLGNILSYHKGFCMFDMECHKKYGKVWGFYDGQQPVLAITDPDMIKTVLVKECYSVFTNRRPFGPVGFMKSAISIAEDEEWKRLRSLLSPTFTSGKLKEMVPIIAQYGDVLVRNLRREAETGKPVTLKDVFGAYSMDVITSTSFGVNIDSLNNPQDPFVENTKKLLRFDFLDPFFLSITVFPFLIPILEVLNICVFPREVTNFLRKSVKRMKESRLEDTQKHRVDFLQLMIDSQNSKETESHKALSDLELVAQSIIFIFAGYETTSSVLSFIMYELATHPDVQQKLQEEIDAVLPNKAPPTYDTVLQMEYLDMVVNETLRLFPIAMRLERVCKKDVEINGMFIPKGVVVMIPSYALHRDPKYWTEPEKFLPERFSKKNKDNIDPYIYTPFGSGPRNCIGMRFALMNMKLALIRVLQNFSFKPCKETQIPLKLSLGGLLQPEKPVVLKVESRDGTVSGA

[2] = Phase 1 Part B: effect of CYP3A4 inhibitor cobicistat on PK of Compound I (HME) in healthy subjects; type: in vivo, human
[3] = Phase 1 Part A: single ascending dose PK of Compound I (75 mg HME tablet) in healthy subjects; type: in vivo, human; details: for AUC(0-t) / AUC(0-inf) / Cmax / half-life / Vd/F / CL/F / t1/2: geometric mean (CV %); for Vd/F: read-out: Vz/F; for Tmax: median (minimum-maximum)
Method: The 75 mg tablet formulation (described in Table 4) was made using the hot melt extrusion (HME) process described in this disclosure. This 75 mg tablet was used in human clinical studies (single-dose study in healthy volunteers) and (repeat-dose study in cancer patients). […] Following repeat dosing, the steady state exposure at the highest dose evaluated (900 mg BID), AUCt=68700 ng·hr/mL, approached the target efficacious exposure (Table 7).
(§1) A total of 40 adult subjects with a mean age of 37 years were enrolled. Part A enrolled subjects into four single dose cohorts of Compound I ranging from 150 to 900 mg, and the PK data were evaluated to select the most appropriate dose level to use in Part B (900 mg). […] All doses of each drug were administered in the fasted state. This study used an amorphous solid dispersion formulation of Compound I produced with a hot-melt extrusion (HME) process.

[4] = target: cytochrome P450 enzyme (Homo sapiens, UniProt P08684); assay: CYP reaction phenotyping analysis; type: in vitro ADME
Sequence of cytochrome P450 enzyme (P08684 whole entry): as above

[5] = Phase 1 Part B: effect of CYP3A4 inhibitor cobicistat on PK of Compound I (HME) in healthy subjects; type: in vivo, human; remark: listed apart in the source
Method: as §1

[6] = 300 mg level, compared with Compound I administered alone
[7] = human, in vivo, oral, Compound I 300 mg single dose alone, Part B, HME, fasted, N = 8, geometric mean (% CV)
[8] = human, in vivo, oral, single dose 150 mg, 75 mg HME tablet, fasted, N = 6
[9] = human, in vivo, oral, single dose 300 mg, 75 mg HME tablet, fasted, N = 5
[10] = human, in vivo, oral, single dose 450 mg, 75 mg HME tablet, fasted, N = 6
[11] = human, in vivo, oral, single dose 900 mg, 75 mg HME tablet, fasted, N = 6
[12] = single dose 150 mg, 75 mg HME tablet, fasted, N = 6
[13] = single dose 300 mg, 75 mg HME tablet, fasted, N = 5
[14] = single dose 450 mg, 75 mg HME tablet, fasted, N = 6
[15] = single dose 900 mg, 75 mg HME tablet, fasted, N = 6
[16] = 900 mg level, compared with Compound I administered alone
[17] = human, in vivo, oral, Compound I 900 mg single dose alone, Part B, HME, fasted, N = 10, geometric mean (% CV)

- effect of added CYP inhibitor on metabolism of Compound I [1]: blocked the metabolism of Compound I
Compound: Nn1nnc2ccccc21 [ABT]

- increase of mean AUC0-t and AUC0-∞ with cobicistat co-administration [2, 6]: 2.6 fold
- increase of mean Cmax with cobicistat co-administration [2, 6]: 1.8 fold
- AUC(0-t) ([2]; human, in vivo, oral, 300 mg, Compound I 300 mg single dose alone, Part B, HME, fasted, N = 8, geometric mean (% CV), read-out: AUC0-24): 15800 ng·h/mL
- AUC(0-t) ([2]; human, in vivo, oral, 300 mg, Compound I 300 mg single dose alone, Part B, HME, fasted, N = 8, geometric mean (% CV), read-out: AUC0-t): 16200 ng·h/mL
- AUC(0-t) ([2]; human, in vivo, oral, 900 mg, Compound I 900 mg single dose alone, Part B, HME, fasted, N = 10, geometric mean (% CV), read-out: AUC0-24): 34100 ng·h/mL
- AUC(0-inf) [2, 7]: 16400 ng·h/mL
- Cmax [2, 7]: 4840 ng/mL
- half-life [2, 7]: 9.96 h
- Tmax ([2]; human, in vivo, oral, Compound I 300 mg single dose alone, Part B, HME, fasted, N = 8, median (minimum-maximum)): 2 h
- AUC(0-t) ([3]; human, in vivo, oral, 150 mg, single dose 150 mg, 75 mg HME tablet, fasted, N = 6, read-out: AUC0-12): 7240 ng·h/mL
- AUC(0-t) ([3]; human, in vivo, oral, 150 mg, single dose 150 mg, 75 mg HME tablet, fasted, N = 6, read-out: AUC0-24): 7720 ng·h/mL
- AUC(0-t) ([3]; human, in vivo, oral, 150 mg, single dose 150 mg, 75 mg HME tablet, fasted, N = 6, read-out: AUC0-t): 7870 ng·h/mL
- AUC(0-t) ([3]; human, in vivo, oral, 300 mg, single dose 300 mg, 75 mg HME tablet, fasted, N = 5, read-out: AUC0-12): 12100 ng·h/mL
- AUC(0-t) ([3]; human, in vivo, oral, 300 mg, single dose 300 mg, 75 mg HME tablet, fasted, N = 5, read-out: AUC0-24): 12600 ng·h/mL
- AUC(0-t) ([3]; human, in vivo, oral, 300 mg, single dose 300 mg, 75 mg HME tablet, fasted, N = 5, read-out: AUC0-t): 12900 ng·h/mL
- AUC(0-t) ([3]; human, in vivo, oral, 450 mg, single dose 450 mg, 75 mg HME tablet, fasted, N = 6, read-out: AUC0-12): 21000 ng·h/mL
- AUC(0-t) ([3]; human, in vivo, oral, 450 mg, single dose 450 mg, 75 mg HME tablet, fasted, N = 6, read-out: AUC0-24): 21800 ng·h/mL
- AUC(0-t) ([3]; human, in vivo, oral, 450 mg, single dose 450 mg, 75 mg HME tablet, fasted, N = 6, read-out: AUC0-t): 22100 ng·h/mL
- AUC(0-t) ([3]; human, in vivo, oral, 900 mg, single dose 900 mg, 75 mg HME tablet, fasted, N = 6, read-out: AUC0-12): 37500 ng·h/mL
- AUC(0-t) ([3]; human, in vivo, oral, 900 mg, single dose 900 mg, 75 mg HME tablet, fasted, N = 6, read-out: AUC0-24): 39200 ng·h/mL
- AUC(0-t) ([3]; human, in vivo, oral, 900 mg, single dose 900 mg, 75 mg HME tablet, fasted, N = 6, read-out: AUC0-t): 40000 ng·h/mL
- AUC(0-inf) [3, 8]: 7610 ng·h/mL
- Cmax [3, 8]: 2070 ng/mL
- half-life [3, 8]: 8.18 h
- Vd/F [3, 8]: 233 L
- Tmax ([3]; human, in vivo, oral, single dose 150 mg, 75 mg HME tablet, fasted, N = 6, read-out: tmax): 2 h
- AUC(0-inf) [3, 9]: 13200 ng·h/mL
- Cmax [3, 9]: 4180 ng/mL
- half-life [3, 9]: 9.56 h
- Vd/F [3, 9]: 313 L
- Tmax ([3]; human, in vivo, oral, single dose 300 mg, 75 mg HME tablet, fasted, N = 5, read-out: tmax): 2 h
- AUC(0-inf) [3, 10]: 22400 ng·h/mL
- Cmax [3, 10]: 7500 ng/mL
- half-life [3, 10]: 8.36 h
- Vd/F [3, 10]: 243 L
- Tmax ([3]; human, in vivo, oral, single dose 450 mg, 75 mg HME tablet, fasted, N = 6, read-out: tmax): 1 h
- AUC(0-inf) [3, 11]: 40400 ng·h/mL
- Cmax [3, 11]: 13300 ng/mL
- half-life [3, 11]: 9.12 h
- Vd/F [3, 11]: 293 L
- Tmax ([3]; human, in vivo, oral, single dose 900 mg, 75 mg HME tablet, fasted, N = 6, read-out: tmax): 1 h
- PK linearity ([3]; single ascending doses under fasted conditions): linear PK
- CL/F [3, 12]: 19.7 (46.9) L/hr
- t1/2 [3, 12]: 8.18 h
- CL/F [3, 13]: 22.7 (56.5) L/hr
- t1/2 [3, 13]: 9.56 h
- Tmax [3, 13]: 2.0 (1.0-2.0) hr
- CL/F [3, 14]: 20.1 (62.5) L/hr
- t1/2 [3, 14]: 8.36 h
- Tmax [3, 14]: 1.0 (1.0-2.0) hr
- CL/F [3, 15]: 22.3 (55.8) L/hr
- t1/2 [3, 15]: 9.12 h
- Tmax [3, 15]: 1.0 (1.0-2.0) hr
- main cytochrome P450 enzyme responsible for metabolism [4]: CYP3A4
- increase of mean AUC0-t and AUC0-∞ with cobicistat co-administration [5, 16]: 3.8 fold
- increase of mean Cmax with cobicistat co-administration [5, 16]: 2.7 fold
- AUC(0-t) ([5]; human, in vivo, oral, 900 mg, Compound I 900 mg single dose alone, Part B, HME, fasted, N = 10, geometric mean (% CV)): 34800 ng·h/mL
- AUC(0-inf) [5, 17]: 35200 ng·h/mL
- Cmax [5, 17]: 11400 ng/mL
- half-life [5, 17]: 8.94 h
- Tmax ([5]; human, in vivo, oral, Compound I 900 mg single dose alone, Part B, HME, fasted, N = 10, median (minimum-maximum)): 2 h
Compound: O=C(c1c(F)ccc(NS(=O)(=O)N2CC[C@@H](F)C2)c1F)c1c[nH]c2ncc(-c3cnc(C4CC4)nc3)cc12 [Compound I, (R)-N-(3-(5-(2-cyclopropylpyrimidin-5-yl)-1H-pyrrolo[2,3-b]pyridine-3-carbonyl)-2,4-difluorophenyl)-3-fluoropyrrolidine-1-sulfonamide]
- exposure (Cmax and AUC) versus dose ([3]; single dose 150 to 900 mg, 75 mg HME tablet, fasted): dose-proportional increase in exposure; also recorded: Exposure increased dose proportionally
